Columns and labels:
Assay type in all cases: in vivo
Chenopodium album [1] = assay: Test Example 2 upland soil treatment; conditions: Table 5, upland soil treatment, index 0-5
Method in brief: (§1)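 Seeds are sown into upland soil and covered by roughly 1 cm of soil, then the compound, formulated as a wettable powder and diluted with water, is applied uniformly to the soil surface the following day at 1 kg active ingredient per hectare. Herbicidal effect or phytotoxicity is graded 0 to 5 after 21 days.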

Stellaria media [2] = assay: Test Example 2 upland soil treatment; conditions: Table 5, upland soil treatment, index 0-5
Method in brief: as §1

Setaria viridis [3] = assay: Test Example 2 upland soil treatment; conditions: Table 5, upland soil treatment, index 0-5
Method in brief: as §1

Digitaria adscendens [4] = assay: Test Example 2 upland soil treatment; conditions: Table 5, upland soil treatment, index 0-5
Method in brief: as §1

Ammannia multiflora = assay: Test Example 3 paddy field treatment; conditions: active ingredient 1 kg per hectare, index 0-5
Method in brief: (§2)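 Scoring used a 0–5 scale of herbicidal effect or phytotoxicity, from <10% to ≥90%, taken 21 days after treatment. Treatment was 1 kg a.i./ha as diluted wettable powder dripped onto 4 cm-deep flooded pots sown with the weeds, 10 days after transplanting two-leaf Koshihikari rice.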

Echinochloa crusgalli = assay: Test Example 3 paddy field treatment; conditions: active ingredient 1 kg per hectare, index 0-5
Method in brief: as §2

Monochoria vaginalis = assay: Test Example 3 paddy field treatment; conditions: active ingredient 1 kg per hectare, index 0-5
Method in brief: as §2

Scirpus juncoides = assay: Test Example 3 paddy field treatment; conditions: active ingredient 1 kg per hectare, index 0-5
Method in brief: as §2

soybean (Glycine max) [5] = assay: Test Example 2 upland soil treatment, crop phytotoxicity; conditions: Table 5, upland soil treatment, index 0-5
Method in brief: as §1

[6] = system: wheat (Triticum aestivum); assay: as above; conditions: Table 5, upland soil treatment, index 0-5
Method in brief: as §1

Rice (Oryza sativa) = assay: Test Example 3 paddy field treatment, crop phytotoxicity; conditions: active ingredient 1 kg per hectare, index 0-5; for Herbicidal activity (phytotoxicity) OS: Table 6, paddy field treatment, transplanted rice, 21st day after dropping
Method in brief: as §2

Chenopodium album [7] = assay: Test Example 1 upland field foliage treatment; conditions: Table 4, upland field foliage treatment, index 0-5
Method in brief: (§3)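 Post-emergence foliar spray, 1 kg a.i./ha, wettable powder diluted in water, applied 14 d after sowing in upland soil. Rating 21 d post-application, 0–5 scale: 5 ≥90%, 4 70–<90%, 3 50–<70%, 2 30–<50%, 1 10–<30%, 0 <10% effect or injury.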

Stellaria media [8] = assay: Test Example 1 upland field foliage treatment; conditions: Table 4, upland field foliage treatment, index 0-5
Method in brief: as §3

Setaria viridis [9] = assay: Test Example 1 upland field foliage treatment; conditions: Table 4, upland field foliage treatment, index 0-5
Method in brief: as §3

Digitaria adscendens [10] = assay: Test Example 1 upland field foliage treatment; conditions: Table 4, upland field foliage treatment, index 0-5
Method in brief: as §3

soybean (Glycine max) [11] = assay: Test Example 1 upland field foliage treatment, crop phytotoxicity; conditions: Table 4, upland field foliage treatment, index 0-5
Method in brief: as §3

[12] = system: wheat (Triticum aestivum); assay: as above; conditions: Table 4, upland field foliage treatment, index 0-5
Method in brief: as §3

[13] = Table 6, paddy field treatment, 21st day after dropping
[14] = paddy field treatment, wettable powder, 21st day after the dropping

Structure (SMILES)	Herbicidal activity CA: Chenopodium album (Chenopodium album [1])	Herbicidal activity SM: Stellaria media (Stellaria media [2])	Herbicidal activity SV: Setaria viridis (Setaria viridis [3])	Herbicidal activity DA: Digitaria adscendens (Digitaria adscendens [4])	Herbicidal activity AM (Ammannia multiflora; [13])	Herbicidal activity EC (Echinochloa crusgalli; [13])	Herbicidal activity MV (Monochoria vaginalis; [13])	Herbicidal activity SJ (Scirpus juncoides; [13])	Herbicidal activity (phytotoxicity) GM: Soybean (Glycine max) (soybean (Glycine max) [5])	Herbicidal activity (phytotoxicity) TA: Wheat (Triticum aestivum) [6]	Herbicidal activity (phytotoxicity) OS (Rice (Oryza sativa))	Herbicidal activity CA: Chenopodium album (Chenopodium album [7])	Herbicidal activity SM: Stellaria media (Stellaria media [8])	Herbicidal activity SV: Setaria viridis (Setaria viridis [9])	Herbicidal activity DA: Digitaria adscendens (Digitaria adscendens [10])	Herbicidal activity (phytotoxicity) GM: Soybean (Glycine max) (soybean (Glycine max) [11])	Herbicidal activity (phytotoxicity) TA: Wheat (Triticum aestivum) [12]	further results
CNC(=O)C(Cn1cc(C)c(-c2cc(F)c(OC)c(F)c2)n1)=NOC [Compound 92]	5 (herbicidal effect of not less than 90%, or phytotoxicity of 90% or more)	5 (herbicidal effect of not less than 90%, or phytotoxicity of 90% or more)	5 (herbicidal effect of not less than 90%, or phytotoxicity of 90% or more)	5 (herbicidal effect of not less than 90%, or phytotoxicity of 90% or more)	5 (herbicidal effect of not less than 90%, or phytotoxicity of 90% or more)	5 (herbicidal effect of not less than 90%, or phytotoxicity of 90% or more)	5 (herbicidal effect of not less than 90%, or phytotoxicity of 90% or more)	5 (herbicidal effect of not less than 90%, or phytotoxicity of 90% or more)	0 (herbicidal effect of not less than 0% and less than 10%, or phytotoxicity of 0% or more and less than 10%)	0 (herbicidal effect of not less than 0% and less than 10%, or phytotoxicity of 0% or more and less than 10%)	0 (herbicidal effect of not less than 0% and less than 10%, or phytotoxicity of 0% or more and less than 10%)	5 (herbicidal effect of not less than 90%, or phytotoxicity of 90% or more)	5 (herbicidal effect of not less than 90%, or phytotoxicity of 90% or more)	5 (herbicidal effect of not less than 90%, or phytotoxicity of 90% or more)	5 (herbicidal effect of not less than 90%, or phytotoxicity of 90% or more)	0 (herbicidal effect of not less than 0% and less than 10%, or phytotoxicity of 0% or more and less than 10%)	0 (herbicidal effect of not less than 0% and less than 10%, or phytotoxicity of 0% or more and less than 10%)	
CNC(=O)C(Cn1cc(C)c(-c2ccc(OC)cc2)n1)=NOC [Compound 41, 2-methoxyimino-3-((4′-methoxyphenyl)-4-methyl-pyrazole)-1-yl-propanoic acid-N-methylamide]	5 (herbicidal effect of not less than 90%, or phytotoxicity of 90% or more)	5 (herbicidal effect of not less than 90%, or phytotoxicity of 90% or more)	5 (herbicidal effect of not less than 90%, or phytotoxicity of 90% or more)	5 (herbicidal effect of not less than 90%, or phytotoxicity of 90% or more)					1 (herbicidal effect of not less than 10% and less than 30%, or phytotoxicity of 10% or more and less than 30%)	0 (herbicidal effect of not less than 0% and less than 10%, or phytotoxicity of 0% or more and less than 10%)		5 (herbicidal effect of not less than 90%, or phytotoxicity of 90% or more)	5 (herbicidal effect of not less than 90%, or phytotoxicity of 90% or more)	5 (herbicidal effect of not less than 90%, or phytotoxicity of 90% or more)	5 (herbicidal effect of not less than 90%, or phytotoxicity of 90% or more)	1 (herbicidal effect of not less than 10% and less than 30%, or phytotoxicity of 10% or more and less than 30%)	0 (herbicidal effect of not less than 0% and less than 10%, or phytotoxicity of 0% or more and less than 10%)	Herbicidal activity AM (Ammannia multiflora; [14]): 5 (herbicidal effect of not less than 90%, or phytotoxicity of 90% or more); Herbicidal activity EC (Echinochloa crusgalli; [14]): 5 (herbicidal effect of not less than 90%, or phytotoxicity of 90% or more); Herbicidal activity MV (Monochoria vaginalis; [14]): 5 (herbicidal effect of not less than 90%, or phytotoxicity of 90% or more); Herbicidal activity SJ (Scirpus juncoides; [14]): 5 (herbicidal effect of not less than 90%, or phytotoxicity of 90% or more); Herbicidal activity OS (phytotoxicity to rice) (Rice (Oryza sativa); paddy field treatment, transplanted rice Koshihikari, wettable powder, 21st day after the dropping): 0 (herbicidal effect of not less than 0% and less than 10%, or phytotoxicity of 0% or more and less than 10%)
CNC(=O)C(Cn1cc(C)c(-c2ccc(F)c(F)c2)n1)=NOC [Compound 59]	5 (herbicidal effect of not less than 90%, or phytotoxicity of 90% or more)	5 (herbicidal effect of not less than 90%, or phytotoxicity of 90% or more)	5 (herbicidal effect of not less than 90%, or phytotoxicity of 90% or more)	5 (herbicidal effect of not less than 90%, or phytotoxicity of 90% or more)	5 (herbicidal effect of not less than 90%, or phytotoxicity of 90% or more)	5 (herbicidal effect of not less than 90%, or phytotoxicity of 90% or more)	5 (herbicidal effect of not less than 90%, or phytotoxicity of 90% or more)	5 (herbicidal effect of not less than 90%, or phytotoxicity of 90% or more)	0 (herbicidal effect of not less than 0% and less than 10%, or phytotoxicity of 0% or more and less than 10%)	0 (herbicidal effect of not less than 0% and less than 10%, or phytotoxicity of 0% or more and less than 10%)	0 (herbicidal effect of not less than 0% and less than 10%, or phytotoxicity of 0% or more and less than 10%)	5 (herbicidal effect of not less than 90%, or phytotoxicity of 90% or more)	5 (herbicidal effect of not less than 90%, or phytotoxicity of 90% or more)	5 (herbicidal effect of not less than 90%, or phytotoxicity of 90% or more)	5 (herbicidal effect of not less than 90%, or phytotoxicity of 90% or more)	0 (herbicidal effect of not less than 0% and less than 10%, or phytotoxicity of 0% or more and less than 10%)	0 (herbicidal effect of not less than 0% and less than 10%, or phytotoxicity of 0% or more and less than 10%)	

Source: patent US7192906B2, “Substituted pyrazole derivatives, production process thereof, and herbicide compositions containing the derivatives” (SDS Biotech K.K., priority 2001, dated 2007)
